Source: ChEMBL document CHEMBL1201862, “PubChem BioAssay data set” (2004)
Activity calls are given as the source filed them.

Legend:
[1] = biological target: Cytochrome P450 2C9 (Homo sapiens, UniProt P11712)
[2] = biological target: T1, Corticotropin-releasing factor receptor 2/Corticotropin-releasing factor-binding protein (Homo sapiens, UniProt P24387+Q13324); assay: activators of CRF receptor 2 with binding protein – uHTS hits, confirmation (AID 602473); assay type: functional; settings: read-out: EC50_Mean
T1 sequence (Q13324 whole entry): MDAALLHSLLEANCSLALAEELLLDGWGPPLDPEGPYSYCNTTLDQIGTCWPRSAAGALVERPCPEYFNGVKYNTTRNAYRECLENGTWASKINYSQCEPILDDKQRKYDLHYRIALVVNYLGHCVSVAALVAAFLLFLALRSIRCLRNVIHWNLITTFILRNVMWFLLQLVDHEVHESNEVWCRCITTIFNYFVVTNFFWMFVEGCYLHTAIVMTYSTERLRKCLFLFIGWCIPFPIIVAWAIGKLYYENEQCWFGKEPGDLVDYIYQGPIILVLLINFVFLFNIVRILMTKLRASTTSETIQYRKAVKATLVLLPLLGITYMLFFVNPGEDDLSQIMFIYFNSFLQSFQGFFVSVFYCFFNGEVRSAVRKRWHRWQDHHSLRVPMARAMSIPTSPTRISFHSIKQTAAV
T1 sequence (P24387 whole entry): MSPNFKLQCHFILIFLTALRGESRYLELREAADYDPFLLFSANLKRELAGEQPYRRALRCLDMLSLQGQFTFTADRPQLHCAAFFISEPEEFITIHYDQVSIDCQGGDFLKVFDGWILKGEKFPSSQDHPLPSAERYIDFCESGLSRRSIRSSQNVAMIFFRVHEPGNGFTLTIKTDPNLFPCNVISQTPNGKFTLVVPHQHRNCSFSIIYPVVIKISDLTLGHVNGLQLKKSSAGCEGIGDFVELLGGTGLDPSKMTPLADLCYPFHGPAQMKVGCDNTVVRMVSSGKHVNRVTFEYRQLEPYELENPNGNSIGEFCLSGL

[3] = inhibitors of intracellular T. cruzi replication, confirmation, NIH3T3 host cells, beta-gal luminescence (AID 2044); assay type: functional, cell-based;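 also: intracellular parasites grown in NIH/3T3 mouse fibroblasts as host cells; luminescent beta-galactosidase reporter signal from transgenic T. cruzi replicating inside host cells; inhibitors lower the luminescence signal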
[4] = cytotoxicity toward NIH3T3 fibroblasts, dose response, counter-screen, cell-based, ATP luminescence, mouse fibroblasts (AID 2010); assay type: functional;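 also: cells exposed to compound for about 90 hours before reading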
[5] = biological target: Cytochrome P450 2D6 (Homo sapiens, UniProt P10635);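 also: CYP2D6 member of a cytochrome P450 panel assay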
Cytochrome P450 2D6, sequence (P10635 whole entry): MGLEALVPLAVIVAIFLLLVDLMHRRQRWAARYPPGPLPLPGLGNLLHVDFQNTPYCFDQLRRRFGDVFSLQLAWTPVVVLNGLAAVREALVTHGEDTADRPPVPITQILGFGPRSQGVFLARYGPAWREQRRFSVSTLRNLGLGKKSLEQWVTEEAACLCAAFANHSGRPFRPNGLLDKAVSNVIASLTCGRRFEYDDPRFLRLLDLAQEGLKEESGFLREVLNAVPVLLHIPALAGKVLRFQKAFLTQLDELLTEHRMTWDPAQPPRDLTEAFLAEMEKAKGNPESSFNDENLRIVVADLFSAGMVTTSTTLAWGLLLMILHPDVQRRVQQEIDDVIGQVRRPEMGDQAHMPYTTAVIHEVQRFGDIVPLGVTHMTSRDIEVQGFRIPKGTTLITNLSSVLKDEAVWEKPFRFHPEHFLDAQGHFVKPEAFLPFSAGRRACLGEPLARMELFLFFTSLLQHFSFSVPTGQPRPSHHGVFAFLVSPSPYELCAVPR

[6] = biological target: T2, Cytochrome P450 1A2 (Homo sapiens, UniProt P05177);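 also: PubChem cytochrome P450 panel assay, CYP1A2 panel member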
T2 sequence (P05177 whole entry): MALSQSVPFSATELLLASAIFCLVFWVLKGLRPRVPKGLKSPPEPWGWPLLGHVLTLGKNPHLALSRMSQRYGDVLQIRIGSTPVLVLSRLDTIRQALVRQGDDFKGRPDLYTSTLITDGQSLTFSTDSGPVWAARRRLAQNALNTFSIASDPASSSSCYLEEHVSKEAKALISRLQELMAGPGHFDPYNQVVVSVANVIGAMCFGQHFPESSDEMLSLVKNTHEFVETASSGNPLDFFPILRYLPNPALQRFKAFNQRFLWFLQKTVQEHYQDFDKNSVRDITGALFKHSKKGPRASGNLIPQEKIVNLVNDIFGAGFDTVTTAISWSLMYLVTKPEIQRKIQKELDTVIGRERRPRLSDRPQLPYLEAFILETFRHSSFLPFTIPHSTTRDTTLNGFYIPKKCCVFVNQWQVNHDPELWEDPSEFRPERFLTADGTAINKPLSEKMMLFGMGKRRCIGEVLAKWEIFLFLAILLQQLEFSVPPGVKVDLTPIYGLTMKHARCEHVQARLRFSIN

[7] = HEp-2 cell cytotoxicity, dose response, cytotoxicity control for RSV inhibitor project, HTS (AID 2410); assay type: functional; settings: human respiratory syncytial virus

Cytochrome P450 2C9, sequence (P11712 whole entry): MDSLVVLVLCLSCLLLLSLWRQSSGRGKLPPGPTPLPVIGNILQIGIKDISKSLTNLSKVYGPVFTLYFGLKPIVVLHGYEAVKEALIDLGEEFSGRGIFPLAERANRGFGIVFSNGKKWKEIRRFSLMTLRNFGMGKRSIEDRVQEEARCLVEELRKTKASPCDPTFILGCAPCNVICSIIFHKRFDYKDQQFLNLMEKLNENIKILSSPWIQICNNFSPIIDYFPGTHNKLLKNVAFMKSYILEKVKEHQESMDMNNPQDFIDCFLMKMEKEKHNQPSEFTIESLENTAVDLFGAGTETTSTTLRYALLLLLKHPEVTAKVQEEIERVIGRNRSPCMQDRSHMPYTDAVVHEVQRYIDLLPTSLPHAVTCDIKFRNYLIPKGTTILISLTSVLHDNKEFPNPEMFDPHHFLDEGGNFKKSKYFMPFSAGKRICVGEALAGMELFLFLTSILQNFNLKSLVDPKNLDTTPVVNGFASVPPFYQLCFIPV

AC50 [1] | SMILES | EC50 [3] | EC50 [4] | other results
31.6 µM (inconclusive) | COc1ccc(-n2c(=O)c(-c3ccc(Cl)cc3)nc3cnc(N4CCOCC4)nc32)cc1 | – | – | –
6.31 µM (inconclusive) | O=C(C[N+]1(c2ccccc2)CCOCC1)c1ccccc1 | – | – | –
2.51 µM (inconclusive) | C/C(CCC(=O)OC[C@@H]1O[C@H](C#Cc2ccccc2)C=C[C@@H]1Oc1ccc(C)cc1)=N/O[C@@H](C)CN1CCCc2nc(C)c(C)cc21 | – | – | –
10 µM (inconclusive) | O=S(=O)(c1ccccc1)N1CCC[C@@]2(CCN(C(c3ccccc3)c3ccccc3)C2)C1 | – | – | –
0.398 µM (inconclusive) | COc1ccccc1CNc1ncnc2ccc(-c3ccc4c(c3)OCO4)cc12 | – | – | –
15.8 µM (inconclusive) | CCOC(=O)C(C)Sc1nnc(CNC(=O)c2ccc(OC)cc2)n1C1CCCCC1 (centres undefined) | – | – | –

The remaining lines, values behind:

SMILES | AC50 [1] | EC50 [3] | EC50 [4] | other results
c1ccc(CCNc2nc3ccccc3n3nnnc23)cc1 | – | – | – | EC50 [2]: > 53 µM (inactive)
Cn1c(=O)c([N+](=O)[O-])c(NCCc2ccccc2)c2ccccc21 | – | 0.554 µM (active) | > 60 µM (not active) | –
O=C1C2Sc3nc(O)sc3C(c3ccccc3)C2C(=O)N1c1ccc(Cl)cc1 (centres undefined) | – | – | – | AC50 [5]: 22.4 µM (inconclusive)
COc1cc(O)oc1/C=N/c1ccc(C(F)(F)F)cc1 | 17.8 µM (inconclusive) | – | – | AC50 [5]: 15.8 µM (inconclusive)
Cc1nn(-c2ccc([N+](=O)[O-])cc2)c2c1C(c1cccc(Br)c1)N1C(=N2)C(=O)Nc2ccccc21 (centres undefined) | – | 2.13 µM (active) | > 60 µM (not active) | –
CSc1cc(C)nc(NC(C)=O)n1 | 3.16 µM (inconclusive) | – | – | AC50 [6]: 1.26 µM (inconclusive)
Cc1ccc(OCCOCCn2cnc3ccccc3c2=O)cc1C | – | – | – | CC50 [7]: 23.3 µM (active)
CC(Oc1ccc(-c2ccccc2)cc1)C(=O)O (centres undefined) | 39.8 µM (inconclusive) | – | – | AC50 [6]: 25.1 µM (inconclusive)
COc1ccc(C2SCC(=O)N2CC23CC4CC(CC(C4)C2)C3)cc1 (centres undefined) | – | 2.87 µM (active) | > 60 µM (not active) | –
Clc1ccc2[nH]cc(-c3nnnn3-c3ccc4ccccc4c3)c2c1 | – | 1.97 µM (active) | > 60 µM (not active) | –
CCCCC(=O)Nc1cc(OCC)c(NC(=O)c2ccccc2[N+](=O)[O-])cc1OCC | – | – | – | AC50 [6]: 14.1 µM (inconclusive)
CCN(CC)CCCOC(=O)c1ccc(OC)cc1O | – | 0.743 µM (active) | > 60 µM (not active) | –
Cc1ccc(S(=O)(=O)N/N=C\c2cn(-c3ccccc3)nc2-c2ccccc2)cc1 | – | – | – | CC50 [7]: 13.2 µM (active)
COc1ccc(CC(=O)NC(=S)Nc2cccc(C)c2)cc1 | – | – | – | EC50 [2]: 9.53 µM (active)
CCCNC(=O)OC[C@@H]1O[C@H](CCO/N=C(\C)CCN2CCCCc3nc(C)c(C)cc32)C=C[C@@H]1Oc1ccc(OC)cc1 | 3.98 µM (inconclusive) | – | – | AC50 [5]: 2.51 µM (inconclusive)
O=C(Nc1ccccc1C(=O)O)c1cc(S(=O)(=O)N2CCCCC2)c(Cl)cc1Cl | – | 3.6 µM (active) | 14 µM (active) | –
CCOc1ccccc1Nc1nc(-c2sc(NC(=O)c3ccccc3)nc2C)cs1 | – | – | – | AC50 [6]: 6.31 µM (inconclusive); AC50 [5]: 20 µM (inconclusive)
CC(=O)Nc1ccc(Cc2ccc3nc(O)cc(C)c3c2)cc1 | 6.31 µM (inconclusive) | – | – | –
O=C(N/N=C/c1ccc([N+](=O)[O-])o1)C(O)c1ccccc1 (centres undefined) | – | 0.565 µM (active) | > 60 µM (not active) | –
Clc1ccc2c(N3CCC(CCC4CCN(c5ncnc6cc(Cl)ccc56)CC4)CC3)ncnc2c1 | – | – | – | AC50 [6]: 3.16 µM (inconclusive)
CCOC(=O)N1CCC(N2CCCC(C(=O)c3cc(F)ccc3OC)C2)CC1 (centres undefined) | – | 2.66 µM (active) | > 60 µM (not active) | –
Cc1cccc(CNc2cc(-c3c(C)noc3C)ncn2)c1 | – | – | – | AC50 [5]: 31.6 µM (inconclusive)
CN(C)C(=O)c1ccc(-c2cncnc2NC2CCNCC2)cc1 | – | – | – | AC50 [6]: 25.1 µM (inconclusive)
CCN1CCN(CC(=O)N2CCCC(C(=O)c3ccc(Oc4ccccc4)cc3)C2)CC1 (centres undefined) | – | 0.478 µM (active) | > 30 µM (not active) | –
